Here are results for one substance from patent US20080311158A1, “Hepatitis C Virus Replication System” (priority 2004, published 2008).

“Also recorded” adds a separate entry of the source.

In experiment [1] the test system is HCV RNA in 21-5/R809 cells. Nature of the experiment: HCV RNA levels after IFN-α treatment of 21-5/R809 cell culture. It counts as cell-based, hepatitis C virus. Conditions: 21-5/R809 cells incubated with IFN-α. An excerpt:
FIGS. 17 and 18 show levels of HCV RNA or ribosomal RNA after IFN-α treatment of cell culture.

For experiment [2], the system named is E1 and E2 distribution in 21-5/R809 cells. Nature of the experiment: Intracellular immunofluorescence of E1/E2 in 21-5/R809 cells before and after IFN-α treatment. To be noted: anti E1/E2 staining, FIG. 16. It counts as cell-based, human. The protocol: Cells were stained with anti E1/E2.
Cells were plated on […] coverslips in 24-well plates at a density of 5×10^4 cells per well. One day after seeding, cells were washed in PBS, fixed in 4% formaldehyde for 30 min and then permeabilized with 0.1% Triton X-100 in PBS for 15 min. Cells were then pretreated with blocking solution (0.5% bovin serum albumin in PBS) for 30 min and incubated for 1 h at room temperature with the primary antibodies diluted in blocking solution according to the manufacturer's instructions. After three washes in PBS, AlexaFluor-conjugated secondary antibodies were added to the cells at a 1:200 dilution for 1 h at room temperature. After washings with PBS, coverslips were washed in distilled water, and mounted in aqueous mounting medium Vectashield with DAPI (4′,6′-diamidino-2-phenylindole).

For the next experiment, the system named is HCV replication. Conditions: reference 101; cited from earlier work.

Regarding Interferon alpha [IFN-α], the “HCV RNA levels, absolute” value in experiment [1] (FIG. 17) was “decrease”. Moreover, in experiment [1] (FIG. 18), the “HCV RNA levels relative to ribosomal RNA” value is “decrease”. The “ER-pattern distribution of E1 and E2” value in experiment [2] was “lose the typical ER-pattern distribution of E1 and E2; also recorded: changed the ER-pattern distribution of E1 and E2”. For the same substance, the “HCV replication in cell culture” value in the experiment with HCV replication is recorded as “inhibit HCV replication”.
